Experimental data: patent US11938137B2, “Lipid prodrugs of mycophenolic acid and uses thereof” (PureTech LYT, Inc., priority 2017, dated 2024)

Assay: Lymphatic transport assay in mesenteric lymph-duct cannulated rats
Type: in vivo, rat
Conditions: as E2 but dose 1 mg/rat; class symbols
Procedure: In order to assess the lymphatic transport of disclosed lipid prodrugs in rats, the mesenteric lymph ducts of the rats used in this study were cannulated to allow continual collection of mesenteric lymph. Lipid formulations containing the compound of interest were then administered to the animals, lymph was collected, and drug concentrations in the lymph samples were quantified.
Lipid-based formulations of the compounds of the invention or control compounds were prepared as previously described (Trevaskis, N. L. et al., Pharmaceutical Research, 2005, 22(11), 1863-1870, WO 2016/023082, and WO 2017/041139, hereby incorporated by reference.
In brief, either 1 or 2 mg of test prodrug, 40 mg oleic acid and 25 mg Tween 80 were mixed in a glass vial and incubated at 37° C. for 12-18 h to equilibrate. An aqueous phase consisting of 5.6 ml phosphate buffered saline (PBS, pH 7.4) was subsequently added to the lipid phase (MPA was dissolved in PBS for the preparation of MPA containing formulations) and the formulation emulsified by ultrasonication with a Misonix XL 2020 ultrasonic processor (Misonix, Farmingdale, NY, USA) equipped with a 3.2-mm microprobe tip running at 30% of the maximal amplitude of 240 μm and a frequency of 20 kHz for 2 min at room temperature. Doses for administering to more than one animal can be prepared in one batch by suitably increasing the quantities given above. Drug/prodrug concentrations in all formulations were verified using HPLC-MS.
Male Sprague-Dawley (SD) rats were selected for the lymphatic transport studies. Rats (typically 240-320 g) were maintained on a standard diet and fasted overnight with free access to water prior to experiments.
Anesthetized rats were placed on a heated pad at 37° C. and cannulas inserted into the duodenum (for formulation administration and rehydration), mesenteric lymph duct (for lymph collection), and carotid artery (in cases where blood collection was conducted). Post-surgery, rats were re-hydrated for 0.5 h via intraduodenal infusion of normal saline at 2.8 mL/h. The lipid formulations were infused into the duodenum at 2.8 mL/h for 2 h after which, normal saline was infused at 2.8 mL/h for the remainder of the experiment. Lymph was continuously collected for up to 8 h into pre-weighed Eppendorf tubes containing 10 μL of 1,000 IU/mL heparin. The collection tubes were changed hourly and lymph flow was measured gravimetrically. Aliquots of hourly lymph samples were stored at −20° C. prior to assay.
Drug concentration in lymph is expressed as total drug and includes free drug and drug associated with different glycerides. Lymph samples are first treated with a lipase or other appropriate conditions to liberate free active agent prior to measurement of active agent levels in the lymph. Treatment with a lipase or other hydrolysis conditions liberates free active agent from any corresponding re-esterified glycerides. Porcine pancreatic lipase is appropriate for this purpose. Alternatively, hydrolysis with 0.5 M NaOH may be used. For MPA “phenol” prodrugs (i.e. prodrugs linked to the triglyceride at the aromatic —OH group of MPA), hydrolysis was performed with 0.5 M NaOH except for the lymph samples collected from 3 rats in the group of compound I-20 (MPA-O-C12α′βMe-TG), which were hydrolyzed by porcine pancreatic lipase.
Transport of compounds into lymph during each hourly collection period was calculated from the product of the volume of lymph collected and the measured concentrations in lymph. For fluorescently-labelled compounds such as a BDP-conjugate, the concentrations of total compound may be measured by fluorescence spectroscopy without hydrolysis.
The results of the lymphatic transport assays are summarized in Table 2, below, and FIGS. 1-19. Table 2 summarizes lymphatic transport of total MPA related compound (% of administered dose) following intraduodenal infusion to anaesthetised, mesenteric lymph-duct cannulated rats. […]

| Cumulative lymphatic transport % dose (Mean ± SD, or Range if n = 2) | SMILES |
| --- | --- |
| A (greater than 10% (>10%)) | CCCCCCCCCCCCCCCC(=O)OCC(COC(=O)CCCCCCCCCCCCCCC)OC(=O)CCCCCCCCCCCOC(=O)CC/C(C)=C/Cc1c(O)c2c(c(C)c1OC)COC2=O [I-37, (E)-2-((12-((6-(4-hydroxy-6-methoxy-7-methyl-3-oxo-1,3-dihydroisobenzofuran-5-yl)-4-methylhex-4-enoyl)oxy)dodecanoyl)oxy)propane-1,3-diyl dipalmitate] |

Same assay, conditions: total MPA related compound, intraduodenal infusion, anesthetised mesenteric lymph-duct cannulated rats; class symbols

| Cumulative lymphatic transport % dose (Mean ± SD, or Range if n = 2) | SMILES |
| --- | --- |
| A (greater than 10% (>10%)) | CCCCCCCCCCCCCCCC(=O)OCC(COC(=O)CCCCCCCCCCCCCCC)OC(=O)CC(C)CCCCCCCCCOC(=O)CC/C(C)=C/Cc1c(O)c2c(c(C)c1OC)COC2=O (centres unmarked) [I-51, (E)-2-((12-((6-(4-hydroxy-6-methoxy-7-methyl-3-oxo-1,3-dihydroisobenzofuran-5-yl)-4-methylhex-4-enoyl)oxy)-3-methyldodecanoyl)oxy)propane-1,3-diyl dipalmitate] |
| B (between 1% and 10% (1%-10%)) | CCCCCCCCCCCCCCCC(=O)OCC(COC(=O)CCCCCCCCCCCCCCC)OC(=O)C(C)CCCCCCCCC(C)C(=O)Oc1cc(C)cc(C)c1C(C)(C)CC(=O)Oc1c(C/C=C(\C)CCC(=O)OC)c(OC)c(C)c2c1C(=O)OC2 (centres unmarked) [I-52] |
| A (greater than 10% (>10%)) | CCCCCCCCCCCCCCCC(=O)OCC(COC(=O)CCCCCCCCCCCCCCC)OC(=O)CCCCCCCCCCCCCC(=O)Oc1c(C/C=C(\C)CCC(=O)OC)c(OC)c(C)c2c1C(=O)OC2 [I-57, (E)-1-(1,3-bis(palmitoyloxy)propan-2-yl) 15-(6-methoxy-5-(6-methoxy-3-methyl-6-oxohex-2-en-1-yl)-7-methyl-3-oxo-1,3-dihydroisobenzofuran-4-yl) pentadecanedioate] |
| A (greater than 10% (>10%)) | CCCCCCCCCCCCCCCC(=O)OCC(COC(=O)CCCCCCCCCCCCCCC)OC(=O)C(C)CCCCCCC(C)C(=O)Oc1c(C/C=C(\C)CCC(=O)OC)c(OC)c(C)c2c1C(=O)OC2 (centres unmarked) [I-61] |
| A (greater than 10% (>10%)) | CCCCCCCCCCCCCCCC(=O)OCC(COC(=O)CCCCCCCCCCCCCCC)OC(=O)CC(C)CCCCCCCC(C)C(=O)OCCCC(=O)Oc1c(C/C=C(\C)CCC(=O)OC)c(OC)c(C)c2c1C(=O)OC2 (centres unmarked) [I-62, (E)-12-(1,3-bis(palmitoyloxy)propan-2-yl) 1-(4-((6-methoxy-5-(6-methoxy-3-methyl-6-oxohex-2-en-1-yl)-7-methyl-3-oxo-1,3-dihydroisobenzofuran-4-yl)oxy)-4-oxobutyl) 2,10-dimethyldodecanedioate] |
| A (greater than 10% (>10%)) | CCCCCCCCCCCCCCCC(=O)OCC(COC(=O)CCCCCCCCCCCCCCC)OC(=O)C(C)CCCCCCCCCC(=O)Oc1c(C/C=C(\C)CCC(=O)OC)c(OC)c(C)c2c1C(=O)OC2 (centres unmarked) [I-60] |

Continued, compound first:

| SMILES | Cumulative lymphatic transport % dose (Mean ± SD, or Range if n = 2) |
| --- | --- |
| CCCCCCCCCCCCCCCC(=O)OCC(COC(=O)CCCCCCCCCCCCCCC)OC(=O)CCCCC(=O)Oc1c(C/C=C(\C)CCC(=O)OC)c(OC)c(C)c2c1C(=O)OC2 [I-18] | B (between 1% and 10% (1%-10%)) |
| CCCCCCCCCCCCCCCC(=O)OCC(COC(=O)CCCCCCCCCCCCCCC)OC(=O)OCCCOC(=O)CC/C(C)=C/Cc1c(O)c2c(c(C)c1OC)COC2=O [I-27, (E)-2-(((3-((6-(4-hydroxy-6-methoxy-7-methyl-3-oxo-1,3-dihydroisobenzofuran-5-yl)-4-methylhex-4-enoyl)oxy)propoxy)carbonyl)oxy)propane-1,3-diyl dipalmitate] | B (between 1% and 10% (1%-10%)) |
| CCCCCCCCCCCCCCCC(=O)OCC(COC(=O)CCCCCCCCCCCCCCC)OC(=O)CCCCCCOC(=O)CC/C(C)=C/Cc1c(O)c2c(c(C)c1OC)COC2=O [I-36, (E)-2-((7-((6-(4-hydroxy-6-methoxy-7-methyl-3-oxo-1,3-dihydroisobenzofuran-5-yl)-4-methylhex-4-enoyl)oxy)heptanoyl)oxy)propane-1,3-diyl dipalmitate] | B (between 1% and 10% (1%-10%)) |
| CCCCCCCCCCCCCCCC(=O)OCC(COC(=O)CCCCCCCCCCCCCCC)OC(=O)CCCCCCCCCCC(=O)Oc1cc(C)cc(C)c1C(C)(C)CC(=O)Oc1c(C/C=C(\C)CCC(=O)OC)c(OC)c(C)c2c1C(=O)OC2 [I-47] | B (between 1% and 10% (1%-10%)) |
| CCCCCCCCCCCCCCCC(=O)OCC(COC(=O)CCCCCCCCCCCCCCC)OC(=O)CC(C)CCCCCCCC(C)C(=O)OCOC(=O)Oc1c(C/C=C(\C)CCC(=O)OC)c(OC)c(C)c2c1C(=O)OC2 (centres unmarked) [I-21, (E)-12-(1,3-Bis(palmitoyloxy)propan-2-yl) 1-(((((6-methoxy-5-(6-methoxy-3-methyl-6-oxohex-2-en-1-yl)-7-methyl-3-oxo-1,3-dihydroisobenzofuran-4-yl)oxy)carbonyl)oxy)methyl) 2,10-dimethyldodecanedioate] | B (between 1% and 10% (1%-10%)) |
| CCCCCCCCCCCCCCCC(=O)OCC(COC(=O)CCCCCCCCCCCCCCC)OC(=O)CCc1ccc(OC(=O)CC/C(C)=C/Cc2c(O)c3c(c(C)c2OC)COC3=O)cc1 [I-28, (E)-2-((3-(4-((6-(4-hydroxy-6-methoxy-7-methyl-3-oxo-1,3-dihydroisobenzofuran-5-yl)-4-methylhex-4-enoyl)oxy)phenyl)propanoyl)oxy)propane-1,3-diyl dipalmitate] | B (between 1% and 10% (1%-10%)) |
| CCCCCCCCCCCCCCCC(=O)OCC(COC(=O)CCCCCCCCCCCCCCC)OC(=O)CC(C)CCCCCCCOC(=O)CC/C(C)=C/Cc1c(O)c2c(c(C)c1OC)COC2=O (centres unmarked) [I-50, (E)-2-((10-((6-(4-hydroxy-6-methoxy-7-methyl-3-oxo-1,3-dihydroisobenzofuran-5-yl)-4-methylhex-4-enoyl)oxy)-3-methyldecanoyl)oxy)propane-1,3-diyl dipalmitate] | A (greater than 10% (>10%)) |
| CCCCCCCCCCCCCCCC(=O)OCC(COC(=O)CCCCCCCCCCCCCCC)OC(=O)CC(C)CCCCCCCC(C)C(=O)Oc1c(C/C=C(\C)CCC(=O)OCCN2CCOCC2)c(OC)c(C)c2c1C(=O)OC2 (centres unmarked) [I-32, (E)-12-(1,3-bis(palmitoyloxy)propan-2-yl) 1-(6-methoxy-7-methyl-5-(3-methyl-6-(2-morpholinoethoxy)-6-oxohex-2-en-1-yl)-3-oxo-1,3-dihydroisobenzofuran-4-yl) 2,10-dimethyldodecanedioate] | A (greater than 10% (>10%)) |
| CCCCCCCCCCCCCCCC(=O)OCC(COC(=O)CCCCCCCCCCCCCCC)OC(=O)CCCCCCCCCOC(=O)CC/C(C)=C/Cc1c(O)c2c(c(C)c1OC)COC2=O [I-46] | A (greater than 10% (>10%)) |
| CCCCCCCCCCCCCCCC(=O)OCC(COC(=O)CCCCCCCCCCCCCCC)OC(=O)CCCCCCCCCC(=O)Oc1c(C/C=C(\C)CCC(=O)OC)c(OC)c(C)c2c1C(=O)OC2 [I-48] | A (greater than 10% (>10%)) |
